{"source": "patent US10285382B2", "about": "(priority 2017, dated 2019)", "key": {"Influenza A (H1N1)": {"system": "Influenza A (H1N1)", "method": "Glass slides (1″×3″) are ethanol-sanitized and autoclaved prior to testing. The slides (carriers) are placed into sterile plastic petri dishes until use. Aliquots (0.010 ml) of diluted stock Influenza A (H1N1) are aseptically spread over a 1″×1″ square area of the carrier slide to prepare a virus film.\nVirus Control carriers are placed into an adjacent modular room with the lids removed. One additional glass slide (with no virus film) is also placed into each testing chamber to perform cytotoxicity and neutralization validation controls. Upon closure of the respective study contact times (T=60 min and T=120 min), duplicate carriers are removed from each testing chamber. Duplicate carriers are also removed from the control modular room at each time point. Duplicate time zero carriers are harvested and enumerated promptly by eluting the films with 2 ml of Influenza Infection Medium. Serial dilutions (1:10) are performed and dilutions 10^−1 to 10^−5 are plated in quadruplicate onto Madin-Darby Canine Kidney (MDCK) cell monolayers prepared to suitable confluency. Cell culture assay trays are incubated at 35° C. on an orbital rotator (60 rotations/minute) for 60 minutes to facilitate viral-host adsorption. Trays are removed from incubation, and Influenza infection Media is pipetted into each well (˜1.0 ml). The trays are incubated for 7 days. The assay trays are observed regularly for the presence of cytotoxicity, viral cytopathic effects, and contamination. At the end of 7 days, plates are scored and the Spearman-Karber Method is used to compute viral titers and levels of cytotoxicity."}, "Aspergillus fumigatus": {"system": "Aspergillus fumigatus", "from_the_text": "(§1) Hatcheries and chick production facilities are subject to heavy bacterial loads that are difficult to control. In addition to the animals themselves, there is a significant contamination of the facilities from the outside."}, "Other blue green": {"system": "Other blue green", "from_the_text": "as §1"}, "Total bacteria": {"system": "Total bacteria", "from_the_text": "as §1"}, "Salmonella": {"system": "Salmonella", "conditions": "hatchery environment (egg room and incubators); after 28 days"}, "[1]": {"system": "S. aureus ATCC 33592 (MRSA)"}, "[2]": {"system": "MS2 Bacteriophage ATCC 15597-B1", "conditions": "DHP (+); 1 hour"}, "bacteria growing on TSA": {"system": "bacteria growing on TSA", "conditions": "for number of bacteria growing on TSA: test room, DHP about 0.1 ppm, FIGS. 13A-B"}, "[3]": {"system": "Gram-negative enteric bacilli", "conditions": "egg cooler conditions"}, "salmonellae": {"system": "salmonellae", "conditions": "egg cooler conditions; during the trial"}, "bacteria": {"system": "bacteria", "conditions": "end of test period (0, 7, and 30 days), three locations; from about 70 total; FIGS. 9A-C", "quoted_text": "In addition, bacterial contamination in the egg room is assessed by placing blood agar plates at three locations in the room (East, North, and West) at 0, 7, and 30 days, and bacterial growth is assessed after 24 hours."}, "[4]": {"conditions": "Hood Chamber, 60 minutes contact"}, "[5]": {"conditions": "Hood Chamber, 120 minutes contact"}, "[6]": {"conditions": "Modular Room, 60 minutes contact, DHP 0.6 to 1.0 ppm"}, "[7]": {"conditions": "Modular Room, 120 minutes contact, DHP 0.6 to 1.0 ppm"}, "[8]": {"conditions": "6 Hours contact, Hood (Treated)"}, "[9]": {"conditions": "6 Hours contact, Room (Treated)"}, "[10]": {"conditions": "24 Hours contact, Hood (Treated)"}, "[11]": {"conditions": "24 Hours contact, Room (Treated)"}, "[12]": {"conditions": "48 Hours contact, Hood (Treated)"}, "[13]": {"conditions": "48 Hours contact, Room (Treated)"}}, "note": "Where “and” joins values, the source holds several entries; their conditions need not be identical. Equal entries are not always repeated. Where two headings read alike, the source gives them in different places.", "data": [{"compound": "OO", "note": "[DHP, dry hydrogen peroxide]", "values": [{"measurement": "% Reduction", "setting": "Influenza A (H1N1); [4]", "value": 99.8, "unit": "%"}, {"measurement": "Log10 reduction", "setting": "Influenza A (H1N1); [4]", "value": ">=2.62"}, {"measurement": "% Reduction", "setting": "Influenza A (H1N1); [5]", "value": 98.6, "unit": "%"}, {"measurement": "Log10 reduction", "setting": "Influenza A (H1N1); [5]", "value": ">=1.87"}, {"measurement": "% Reduction", "setting": "Influenza A (H1N1); [6]", "value": 87, "unit": "%"}, {"measurement": "Log10 reduction", "setting": "Influenza A (H1N1); [6]", "value": 0.87}, {"measurement": "% Reduction", "setting": "Influenza A (H1N1); [7]", "value": 76, "unit": "%"}, {"measurement": "Log10 reduction", "setting": "Influenza A (H1N1); [7]", "value": 0.62}, {"measurement": "Kill", "setting": "Aspergillus fumigatus", "value": 49999}, {"measurement": "Reduction", "setting": "Aspergillus fumigatus", "value": 99.99, "unit": "%"}, {"measurement": "Post", "setting": "Aspergillus fumigatus; hatchery after DHP", "value": 1}, {"measurement": "Kill", "setting": "Other blue green", "value": 49983}, {"measurement": "Reduction", "setting": "Other blue green", "value": 99.89, "unit": "%"}, {"measurement": "Post", "setting": "Other blue green; hatchery after DHP", "value": 56}, {"measurement": "reduction of bacterial loads in hatcheries", "setting": "Total bacteria; DHP treatment", "value": "over 90%"}, {"measurement": "Kill", "setting": "Total bacteria; Total (sum of all categories)", "value": 650019}, {"measurement": "Post", "setting": "Total bacteria; Total (sum of all categories)", "value": 50167}, {"measurement": "Kill", "setting": "Total bacteria; Total bacteria", "value": 550037}, {"measurement": "Reduction", "setting": "Total bacteria; Total bacteria", "value": 91.65, "unit": "%"}, {"measurement": "Post", "setting": "Total bacteria; Total bacteria, hatchery after DHP", "value": 50110}, {"measurement": "Percent Saleable Chicks", "setting": "hatching eggs; After DHP treatment", "value": 80.82, "unit": "%"}, {"measurement": "Saleable Chick (average)", "setting": "hatching eggs; After DHP treatment, 4,000,000 eggs set per month", "value": "3,318,400"}, {"measurement": "Net increase (# Chicks)", "setting": "hatching eggs; After DHP treatment, from each 4,000,000 eggs set", "value": "62,000"}, {"measurement": "After Modification Cull Rate (%)", "setting": "hatching eggs; August 2016", "value": 1.58, "unit": "%"}, {"measurement": "After Modification First Quality Chick (% Hatched)", "setting": "hatching eggs; August 2016", "value": 79.90, "unit": "%"}, {"measurement": "After Modification Cull Rate (%)", "setting": "hatching eggs; Average June-November 2016", "value": 1.65, "unit": "%"}, {"measurement": "After Modification First Quality Chick (% Hatched)", "setting": "hatching eggs; Average June-November 2016", "value": 80.82, "unit": "%"}, {"measurement": "cull rate lower than the cull rate before DHP modification", "setting": "hatching eggs; DHP modified egg room", "value": "at least 1%"}, {"measurement": "After Modification Cull Rate (%)", "setting": "hatching eggs; July 2016", "value": 1.88, "unit": "%"}, {"measurement": "After Modification First Quality Chick (% Hatched)", "setting": "hatching eggs; July 2016", "value": 79.78, "unit": "%"}, {"measurement": "After Modification Cull Rate (%)", "setting": "hatching eggs; June 2016", "value": 2.09, "unit": "%"}, {"measurement": "After Modification First Quality Chick (% Hatched)", "setting": "hatching eggs; June 2016", "value": 78.62, "unit": "%"}, {"measurement": "After Modification Cull Rate (%)", "setting": "hatching eggs; November 2016", "value": 1.41, "unit": "%"}, {"measurement": "After Modification First Quality Chick (% Hatched)", "setting": "hatching eggs; November 2016", "value": 82.96, "unit": "%"}, {"measurement": "After Modification Cull Rate (%)", "setting": "hatching eggs; October 2016", "value": 1.32, "unit": "%"}, {"measurement": "After Modification First Quality Chick (% Hatched)", "setting": "hatching eggs; October 2016", "value": 82.55, "unit": "%"}, {"measurement": "After Modification Cull Rate (%)", "setting": "hatching eggs; September 2016", "value": 1.63, "unit": "%"}, {"measurement": "After Modification First Quality Chick (% Hatched)", "setting": "hatching eggs; September 2016", "value": 81.09, "unit": "%"}, {"measurement": "percent hatching of first quality chicks", "setting": "hatching eggs; after installation of DHP to the setter incubator environment (room about 0.5 ppm), FIG. 6", "value": 83, "unit": "%"}, {"measurement": "cull rate", "setting": "hatching eggs; eggs incubated under DHP conditions, FIG. 7", "value": "continues to drop"}, {"measurement": "additional birds available for shipping to the grow-out facility", "setting": "hatching eggs; installation of DHP in the egg room", "value": "about 4,000 birds"}, {"measurement": "reduction of Salmonella on the egg surface", "setting": "Salmonella", "value": 83.3, "unit": "%"}, {"measurement": "% Reduction compared to Control", "setting": "[1]; [8]", "value": 95.150, "unit": "%"}, {"measurement": "Average CFU/Carrier", "setting": "[1]; [8]", "value": "2.51E+05", "unit": "CFU/Carrier"}, {"measurement": "Log Reduction compared to Control", "setting": "[1]; [8]", "value": 1.31}, {"measurement": "Replicate CFU/Carrier", "setting": "[1]; [8]", "value": "1.62E+05 CFU/Carrier and 3.40E+05 CFU/Carrier"}, {"measurement": "% Reduction compared to Control", "setting": "[1]; [9]", "value": 83.053, "unit": "%"}, {"measurement": "Average CFU/Carrier", "setting": "[1]; [9]", "value": "8.77E+05", "unit": "CFU/Carrier"}, {"measurement": "Log Reduction compared to Control", "setting": "[1]; [9]", "value": 0.77}, {"measurement": "Replicate CFU/Carrier", "setting": "[1]; [9]", "value": "2.54E+05 CFU/Carrier and 1.50E+06 CFU/Carrier"}, {"measurement": "% Reduction compared to Control", "setting": "[1]; [10]", "value": ">66.667", "unit": "%"}, {"measurement": "Average CFU/Carrier", "setting": "[1]; [10]", "value": "<1.50E+01", "unit": "CFU/Carrier"}, {"measurement": "Log Reduction compared to Control", "setting": "[1]; [10]", "value": ">0.48"}, {"measurement": "Replicate CFU/Carrier", "setting": "[1]; [10]", "value": "2.50E+01 CFU/Carrier and <5.00E+00 CFU/Carrier"}, {"measurement": "% Reduction compared to Control", "setting": "[1]; [11]", "value": ">88.889", "unit": "%"}, {"measurement": "Average CFU/Carrier", "setting": "[1]; [11]", "value": "<5.00E+00", "unit": "CFU/Carrier"}, {"measurement": "Log Reduction compared to Control", "setting": "[1]; [11]", "value": ">0.95"}, {"measurement": "Replicate CFU/Carrier", "setting": "[1]; [11]", "value": "5.00E+00 CFU/Carrier and <5.00E+00 CFU/Carrier"}, {"measurement": "% Reduction compared to Control", "setting": "[1]; [12]", "value": ">78.947", "unit": "%"}, {"measurement": "Average CFU/Carrier", "setting": "[1]; [12]", "value": "<1.00E+01", "unit": "CFU/Carrier"}, {"measurement": "Log Reduction compared to Control", "setting": "[1]; [12]", "value": ">0.68"}, {"measurement": "% Reduction compared to Control", "setting": "[1]; [13]", "value": ">89.474", "unit": "%"}, {"measurement": "Average CFU/Carrier", "setting": "[1]; [13]", "value": "<5.00E+00", "unit": "CFU/Carrier"}, {"measurement": "Log Reduction compared to Control", "setting": "[1]; [13]", "value": ">0.98"}, {"measurement": "Replicate CFU/Carrier", "setting": "[1]; [13]", "value": "<5.00E+00", "unit": "CFU/Carrier"}, {"measurement": "% Reduction vs. Control", "setting": "[2]", "value": 99.8, "unit": "%"}, {"measurement": "Log10 reduction", "setting": "[2]", "value": 3.54}, {"measurement": "Log10 reduction vs. Control", "setting": "[2]", "value": 2.70}, {"measurement": "Percent reduction", "setting": "[2]", "value": 99.97, "unit": "%"}, {"measurement": "TSA growth", "setting": "bacteria growing on TSA; egg cooler conditions, treatment, 0 to 120 hours", "value": "static until 120 hours"}, {"measurement": "number of bacteria growing on TSA", "setting": "bacteria growing on TSA; after 72 hours (P=0.05)", "value": "significantly reduced"}, {"measurement": "number of bacteria growing on TSA", "setting": "bacteria growing on TSA; after 120 hours (P=0.05)", "value": "significantly reduced"}, {"measurement": "growth on Mac at 72 hours compared to 0 hours", "setting": "[3]; treated group, FIG. 14", "value": "significantly less growth"}, {"measurement": "Mac growth", "setting": "[3]; treatment, 0 to 120 hours", "value": "low throughout"}, {"measurement": "growth of Salmonella on the XLT-4", "setting": "salmonellae", "value": "No growth"}, {"measurement": "number of bacterial colonies on the blood agar plates, total", "setting": "bacteria", "value": "about 30"}]}]}
